11 molecules from ChEMBL document CHEMBL1201862, “PubChem BioAssay data set” (2004) can be followed below.

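Growth conditions: 96-well plates. Treatment: test compound, 48 hours, 5 concentrations. Analysis: linear interpolation between bracketing concentrations; unreached endpoints set to highest concentration. GI50: concentration for 50% inhibition of growth.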 Calls of active or inactive are those of the source. No stated cut-off is given here; in the data, active = GI50 up to about 1.1 µM and inactive = higher.

Some test systems named below: A498; SK-OV-3; DU-145; SN12C; HOP-92; OVCAR-4; SF-295; SW-620; NCI-H522; CCRF-CEM; SF-268; SNB-19; SK-MEL-2; A549; COLO 205; MDA-MB-435; NCI-H23; OVCAR-3.
Holding throughout (experiment): NCI-60 cell line screen, 48 h

On to `Cn1cnc([N+](=O)[O-])c1Sc1nc(N)nc2c1ncn2Cc1ccccc1`, for which the GI50 in the assay on A498 is 25 µM (inactive); with SK-OV-3, 24.5 µM (inactive); in the assay on DU-145 it was 20.8 µM (inactive); in the assay with SN12C, 15.8 µM (inactive); with HOP-92, 12 µM (inactive); in the assay on OVCAR-4, 20.8 µM (inactive). In addition, the GI50 in the assay on SF-295 is 44.9 µM (inactive); in the assay on SW-620 it was 22.9 µM (inactive); with NCI-H522, 10.2 µM (inactive); with CCRF-CEM it was 13.9 µM (inactive); in the assay with SF-268 it was 16.5 µM (inactive); with SNB-19, 42.7 µM (inactive). In addition, the GI50 is 15.8 µM (inactive) with SK-MEL-2; 25.5 µM (inactive) in the assay on A549; 16.2 µM (inactive) in the assay with COLO 205; 21.6 µM (inactive) in the assay on MDA-MB-435; 19.2 µM (inactive) in the assay on NCI-H23; 2.29 µM (inactive) with OVCAR-3.

For `COc1cccc(C2CC(C)(O)Oc3cc4c(cc32)OCO4)c1O` (stereo not drawn), the GI50 in the assay with A498 is 41.7 µM (inactive); in the assay with SK-OV-3, 28.5 µM (inactive); with DU-145, 22.6 µM (inactive); in the assay on SN12C it was 28.7 µM (inactive); in the assay with HOP-92, 22.4 µM (inactive); in the assay with OVCAR-4, 38.8 µM (inactive). In addition, the GI50 with SF-295 was 19.4 µM (inactive); in the assay with SW-620, 22.8 µM (inactive); in the assay with NCI-H522, 20.1 µM (inactive); with CCRF-CEM, 13.3 µM (inactive); in the assay on SF-268, 31 µM (inactive); in the assay on SNB-19, 31 µM (inactive). The GI50 is 22.8 µM (inactive) with SK-MEL-2; 34.4 µM (inactive) with A549; 19.5 µM (inactive) with COLO 205; 2.78 µM (inactive) in the assay with MDA-MB-435; 30.4 µM (inactive) in the assay with NCI-H23; 15.6 µM (inactive) with OVCAR-3.

Turning to `CCOP(=O)(CN1CCNCCN(CP(=O)(OCC)OCC)CC1)OCC`, the GI50 in the assay with A498, with SK-OV-3, with DU-145, with SN12C, in the assay on HOP-92 and in the assay on OVCAR-4 was > 100 µM (inactive) throughout. In addition, the GI50 is > 100 µM (inactive) with SF-295; > 100 µM (inactive) in the assay with SW-620; > 100 µM (inactive) in the assay with NCI-H522; > 31.6 µM (inactive) in the assay with CCRF-CEM; > 100 µM (inactive) in the assay with SF-268; > 100 µM (inactive) in the assay on SNB-19. Further, the GI50 in the assay with SK-MEL-2, in the assay with A549, in the assay on COLO 205, in the assay on MDA-MB-435, in the assay on NCI-H23 and in the assay with OVCAR-3 was > 100 µM (inactive) throughout.

Turning to `Cc1cc2nc(C=C(C(F)(F)F)C(F)(F)F)oc2cc1C`, the GI50 in the assay with A498 is > 10 µM (inactive); with SK-OV-3 it was > 10 µM (inactive); in the assay with DU-145, 5.64 µM (inactive); in the assay with SN12C, 2.41 µM (inactive); in the assay with HOP-92, > 10 µM (inactive); with OVCAR-4, 3.18 µM (inactive). The GI50 in the assay with SF-295 was > 10 µM (inactive); with SW-620, 1.73 µM (inactive); with NCI-H522, 3.12 µM (inactive); in the assay on CCRF-CEM, 1.06 µM (active); with SF-268 it was 3.42 µM (inactive); in the assay with SNB-19 it was 3.45 µM (inactive). Moreover, the GI50 is > 10 µM (inactive) in the assay with SK-MEL-2; 5.12 µM (inactive) in the assay on A549; 0.199 µM (active) in the assay on COLO 205; 2.14 µM (inactive) in the assay on MDA-MB-435; 2.49 µM (inactive) in the assay on NCI-H23; 1.95 µM (inactive) in the assay with OVCAR-3.

As for `NCCSS(=O)(=O)CCN`, the GI50 in the assay on A498, in the assay with SK-OV-3, in the assay with DU-145, with SN12C, in the assay on HOP-92 and with OVCAR-4 was > 100 µM (inactive) each time. The GI50 in the assay on SF-295, in the assay on SW-620, with NCI-H522, in the assay with CCRF-CEM, in the assay with SF-268 and with SNB-19 was > 100 µM (inactive) in each case. The GI50 in the assay with SK-MEL-2, in the assay on A549, in the assay with COLO 205, in the assay on MDA-MB-435, in the assay with NCI-H23 and in the assay with OVCAR-3 was > 100 µM (inactive) throughout.

For the molecule `Oc1ccc(/C=C\c2nnc(/C=C\c3ccc(O)c(O)c3)s2)cc1O`, the GI50 was 9.16 µM (inactive) with A498; 13.6 µM (inactive) in the assay on SK-OV-3; 7.05 µM (inactive) in the assay with DU-145; 5.98 µM (inactive) with SN12C; 5.07 µM (inactive) in the assay on HOP-92; 4.34 µM (inactive) with OVCAR-4. Further, the GI50 with SF-295 was 12.2 µM (inactive); in the assay with SW-620, 1.49 µM (inactive); in the assay on NCI-H522 it was 0.875 µM (active); in the assay with CCRF-CEM it was 0.179 µM (active); with SF-268, 2.89 µM (inactive); in the assay with SNB-19 it was 6.07 µM (inactive). Moreover, the GI50 in the assay with SK-MEL-2 was 11.7 µM (inactive); in the assay on A549, 6.31 µM (inactive); in the assay with COLO 205 it was 8.26 µM (inactive); in the assay with MDA-MB-435, 3.78 µM (inactive); in the assay on NCI-H23 it was 3.34 µM (inactive); in the assay with OVCAR-3 it was 3.69 µM (inactive).

On to `CC(=O)Nc1c(C(=N)C#N)ncn1CCO`, for which the GI50 in the assay with A498, in the assay on SK-OV-3, in the assay with DU-145, in the assay with SN12C, in the assay with HOP-92 and with OVCAR-4 was > 100 µM (inactive) each time. The GI50 in the assay on SF-295, in the assay with SW-620, in the assay on NCI-H522, in the assay on CCRF-CEM, with SF-268 and in the assay on SNB-19 was > 100 µM (inactive) in each case. For the same molecule, the GI50 in the assay with SK-MEL-2, in the assay on A549, in the assay on COLO 205, in the assay with MDA-MB-435, with NCI-H23 and in the assay on OVCAR-3 was > 100 µM (inactive) throughout.

`O=C(CC(O)(C(F)(F)F)C(F)(F)Cl)CC(O)(C(F)(F)F)C(F)(F)Cl` (stereo not drawn): the GI50 in the assay with A498 is 2.29 µM (inactive); with SK-OV-3 it was 1.4 µM (inactive); with DU-145, 1.17 µM (inactive); with SN12C it was 1.5 µM (inactive); in the assay on HOP-92, 1.71 µM (inactive); with OVCAR-4, 1.42 µM (inactive). Also, the GI50 with SF-295 is 2.4 µM (inactive); with SW-620, 3.86 µM (inactive); in the assay with NCI-H522, 1.61 µM (inactive); in the assay on CCRF-CEM, 3.86 µM (inactive); with SF-268, 2.31 µM (inactive); with SNB-19 it was 2.22 µM (inactive). Also, the GI50 in the assay on SK-MEL-2 was 1.59 µM (inactive); in the assay on A549, 2.37 µM (inactive); in the assay with COLO 205, 1.69 µM (inactive); in the assay on MDA-MB-435, 2.19 µM (inactive); with NCI-H23, 1.25 µM (inactive); in the assay with OVCAR-3, 1.62 µM (inactive).

For the molecule `COc1ccc(C(=O)N(Cc2cccnc2)C(=S)N(Cc2cccnc2)C(=O)c2ccc(OC)cc2)cc1`, the GI50 is > 100 µM (inactive) with A498; 67.3 µM (inactive) in the assay on SK-OV-3; > 100 µM (inactive) with DU-145; > 100 µM (inactive) in the assay on SN12C; 36.6 µM (inactive) in the assay with HOP-92; 37.4 µM (inactive) in the assay with OVCAR-4. The GI50 is 57.8 µM (inactive) with SF-295; > 100 µM (inactive) in the assay with SW-620; 72.1 µM (inactive) in the assay with NCI-H522; > 100 µM (inactive) with CCRF-CEM; 52.1 µM (inactive) with SF-268; 40.3 µM (inactive) in the assay with SNB-19. In addition, the GI50 was > 100 µM (inactive) in the assay on SK-MEL-2; > 100 µM (inactive) in the assay with A549; > 100 µM (inactive) in the assay on COLO 205; 62.8 µM (inactive) in the assay with MDA-MB-435; > 100 µM (inactive) with NCI-H23; > 100 µM (inactive) in the assay on OVCAR-3.

Take `O[C@H]1[C@H](O)[C@H](O)CN2CCC[C@@H](O)[C@H]12`: the GI50 in the assay with A498, in the assay on SK-OV-3, in the assay with DU-145, with SN12C, in the assay with HOP-92 and in the assay on OVCAR-4 was > 100 µM (inactive) each time. Moreover, the GI50 in the assay on SF-295, in the assay with SW-620, in the assay with NCI-H522, in the assay with CCRF-CEM, with SF-268 and in the assay with SNB-19 was > 100 µM (inactive) in each case. Moreover, the GI50 in the assay on SK-MEL-2, in the assay with A549, with COLO 205, in the assay with MDA-MB-435, in the assay on NCI-H23 and in the assay with OVCAR-3 was > 100 µM (inactive) throughout.

`CC(CNC(N)=O)NC(N)=O` (stereo not drawn): the GI50 in the assay on A498, in the assay on SK-OV-3, with DU-145, in the assay with SN12C, with HOP-92 and in the assay on OVCAR-4 was > 100 µM (inactive) throughout. Moreover, the GI50 in the assay on SF-295, in the assay on SW-620, in the assay with NCI-H522, with CCRF-CEM, in the assay with SF-268 and in the assay with SNB-19 was > 100 µM (inactive) in each case. Also, the GI50 with SK-MEL-2, in the assay on A549, in the assay on COLO 205, in the assay on MDA-MB-435, with NCI-H23 and in the assay with OVCAR-3 was > 100 µM (inactive) throughout.
